# Assay results: US11634447B2 (priority 2012, dated 2023)
# Tested on: bacterial strain LF82 binding to the glycoprotein BSA-(Mannose)3
# Test: Bacterial Binding Assay (BBA)
# Assay type: cell-based, Escherichia coli
# Details: read-out: Bacterial Binding Assay IC50, LF82/Luciferase strain binding to BSA-(Man)3 coated plates, luminescence
# Procedure, shortened: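 Inhibition of LF82/luciferase E. coli adhesion is read as luminescence after washing off unbound cells. Compound and bacteria (10^7 per well) are co-incubated 40-75 min at room temperature on wells coated with 0.5-2 μg/mL BSA-(Man)3, with BSA-only wells as background; IC50 values derived.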
smiles,measurement,value
"OC[C@H]1O[C@H](Cc2ccc(-c3ccc(C[C@H]4O[C@H](CO)[C@@H](O)[C@H](O)[C@@H]4O)cc3)cc2)[C@@H](O)[C@@H](O)[C@@H]1O [Compound 41, ((2R,3S,4R,5S,6R)-2-(Hydroxymethyl)-6-[[4-[4-[[(2R,3S,4R,5S,6R)-3,4,5-trihydroxy-6-(hydroxymethyl)tetrahydropyran-2-yl]methyl]phenyl]phenyl]methyl]tetrahydropyran-3,4,5-triol)]",IC50,550 nM
